Ends that are not written are not given here. PEG 20 kDa = 20 kDa PEG attached through the N-terminal amino group; l = locked nucleic acid (LNA); {C6NH2} = Amino C6 linker; d = 2'-deoxy (DNA); r = 2'-OH (RNA); f = 2'-fluoro
Columns and labels:
[1] = system: human IgG (polyclonal immunoglobulin G) (Homo sapiens); assay: BLI; details: upper case RNA, lower case DNA; 2'-F at U6, U9, C20, U21; LNA at A18; 5' amino C6 linker conjugated to 20 kDa PEG (Jenkem ME); response of IgG on immobilised anti-human IgG antibody with 0.3 mg/mL PEG-aptamer (7.9093 nm without inhibitor); indirect, inhibition of IgG-antibody reaction …
human IgA = assay: Reaction inhibitory effect on human IgA, Bio-Layer Interferometry (Octet R2), anti-human IgA antibody and human IgA; format: binding; details: for Response: human IgA, not added 2.1381
Experimental: (§1) As a model system to confirm the non-specific inhibitory effect, an anti-human IgG antibody and human IgG, or an anti-human IgA antibody and human IgA were used, and the reaction inhibitory effect on the IgG-binding peptide or the IgA-binding peptide with smaller molecular weights than antibody fragments, with or without PEG modification, was confirmed.
(§2) The measurements were performed using Bio-Layer Interferometry (BLI) using Octet(trademark) R2 (manufactured by SARTORIUS), which was a biomolecular interaction analysis system. The basic principles of the Bio-Layer Interferometry are briefly explained below. When light of a specific wavelength is projected onto a layer of biomolecules fixed on the surface of a sensor chip, the light is reflected from both the surface of the biomolecular layer and the internal reference layer, resulting in an optical interference wave. When molecules in the measurement sample bind to the biomolecules on the surface of the sensor chip, the thickness of the layer at the tip of the sensor increases, causing a wavelength shift in the interference wave. By measuring this change in wavelength shift, it is possible to quantify and kinetically analyze in real time the number of molecules that bind to the biomolecules immobilized on the sensor chip surface. In this Example, the test sample and a non-specific reaction inhibitor were allowed to coexist in the measurement sample, and human IgG or human IgA was absorbed in the sample solution. The measurements were carried out according to the operating manual attached to the OctetR2.
(§3) As an antibody solution, an anti-human IgA polyclonal rabbit antibody (manufactured by Dako) was diluted with PBS(−) to 25 μg/mL to prepare an anti-human IgA antibody solution. As a sample solution, the test sample was human IgA adjusted to 250 μg/mL in PBS(−), and to 20 μL of this test sample, the IgA-binding peptide or the IgA-binding peptide modified with 20 kDa PEG was added to a final concentration of 25 μg/mL or 50 μg/mL, respectively, and the total volume was adjusted to 200 μL to prepare the R1.
Measurements using OctetR2 were performed in the same manner as for confirming the reaction inhibitory effect on human IgG.

human IgG [2] = assay: Reaction inhibitory effect of IgG-binding nucleic acid aptamer on anti-human IgG antibody and human IgG, Bio-Layer Interferometry; details: 0.3 mg/mL; not added 7.9093
Experimental: For nucleic acid aptamers, the reaction inhibitory effect with or without PEG modification was confirmed using a model system to confirm the non-specific inhibitory effect in the same manner as in Example 2.
The test sample and measurements were performed under the same assay conditions as in Example 2. In this Example, the test sample and a non-specific reaction inhibitor were allowed to coexist in the measurement sample, and human IgG was absorbed in the sample solution. The measurements were carried out according to the operating manual attached to the OctetR2.
Anti-human IgG polyclonal rabbit antibody (manufactured by Dako) was diluted with PBS(−) to 25 μg/mL to prepare an anti-human IgG antibody solution. The sample solution used was human IgG at 1 mg/mL in PBS(−), with 20 μL of this test sample, and either the IgG-binding nucleic acid aptamer or the IgG-binding nucleic acid aptamer modified with 20 kDa PEG added to a final concentration of 0.3 mg/mL, and then prepared with reaction buffer (145 mmol/L NaCl, 5.4 mmol/L KCl, 0.8 mmol/L MgCl2, 1.8 mmol/L CaCl2, 20 mmol/L Tris (pH 7.6), 0.05% Tween 20) to make a total volume of 200 μL.

[3] = system: non-specific reaction substance (IgG) of sample A, human plasma; assay: Non-specific reaction inhibitory effect, Bio-Layer Interferometry, sample A (human plasma) against anti-TAT antibody; format: binding
Experimental: The measurement was carried out under the same assay conditions as described in Example 2. In this Example, sample A and a non-specific reaction inhibitor were allowed to coexist in the measurement sample, and the non-specific reaction substances were absorbed in the sample solution.
The antibody solution used was an anti-TAT antibody solution prepared by diluting the anti-TAT antibody used in the second reagent (hereinafter referred to as R2) of LPIA Genesis TAT, which was characterized by containing latex particles to which a monoclonal antibody with specific binding ability to TAT was immobilized, with PBS(−) to a concentration of 25 μg/mL. The sample solution was prepared by adding a final concentration of 25 μg/mL or 50 μg/mL of IgG-binding peptide or 20 kDa PEG-modified IgG-binding peptide as a non-specific reaction inhibitor to 20 μL of the test sample diluted 10-fold with PBS(−), and adjusting the total volume to 200 μL with R1.
Using the same assay conditions as those described in Example 3, the non-specific reaction inhibitory effects of the PEG-modified peptides described in Examples 2 and 3 and the prepared PEG-modified antibody fragment were compared. The amounts of non-specific reaction inhibitor added were 25 μg/mL, 50 μg/mL, 100 μg/mL, 200 μg/mL, or 400 μg/mL, and the test sample was the same as sample A in Example 3.
The assay was carried out under the same conditions as described in Example 3. As non-specific reaction inhibitors, sample solutions were prepared to which PEG-modified peptides chemically modified with 5 kDa, 10 kDa, 20 kDa, and 30 kDa PEG were added, and the non-specific reaction inhibitory effect of each was confirmed. The amounts of non-specific reaction inhibitors added were 5 μg/mL, 10 μg/mL, or 20 μg/mL, and the test sample was the same as Sample A in Examples 3 and 4.

[4] = system: non-specific reaction substances of sample A, human plasma; assay: Non-specific inhibitory effect in latex agglutination method on automatic analyzer STACIA (LPIA Genesis TAT)
Experimental: The non-specific inhibitory effect of the IgG-binding peptide and PEG-modified IgG-binding peptide used in Example 2 was confirmed by the latex agglutination method.
The measurements were performed using automated operation of an automatic analyzer, STACIA (manufactured by LSI Medience Corporation). In the STACIA measurement, two main operations were carried out. In the first operation, the sample to be measured was diluted with R1 and heated at 37° C. for 3.5 minutes. In the second operation, R2 was added to the reaction solution and the mixture was incubated at 37° C. for 6 minutes to induce latex agglutination. By optically monitoring the agglutination reaction, the amount of TAT or non-specific reaction substances in the samples to be measured was quantified. In this Example, the non-specific reaction inhibitor was added to R1 so that the concentration after sample addition was 0.05 mg/mL or 0.1 mg/mL, and non-specific reaction substances were absorbed during the first operation. […] The mixture ratio of the measurement sample, R1, and R2 was 20 μL:90 μL:90 μL. Latex agglutination was detected at a wavelength of 700 nm. The measured values were calculated by comparing the absorbance with a calibration curve obtained by measuring TAT of known concentrations. The test sample used was the same as sample A used in Examples 3 to 5.

human IgG [5] = assay: Reaction inhibitory effect on human IgG, Bio-Layer Interferometry (Octet R2), anti-human IgG antibody and human IgG; format: binding; details: for Response: human IgG, not added 6.6462
Experimental: as §1, §2
as §3, with “IgG” for “IgA”, “1 mg/mL” for “250 μg/mL”, “IgG-binding” for “IgA-binding”, “first reagent (hereinafter referred to as R1) of LPIA Genesis TAT (manufactured by LSI Medience Corporation), which was a thrombin-antithrombin III complex (hereinafter referred to as TAT) measurement reagent.” for “R1.”
The sample solution and the anti-human IgG antibody solution were added to the designated wells of a 96-well black plate (manufactured by Greiner Bio-One) at 200 μL per well. To the baseline, dissociation and washing wells, 200 μL of PBS(−) was added. This plate and a biosensor (Biosensor/ProL: manufactured by SARTRIUS) were placed in the designated positions of the OctetR2. After operating the OctetR2 under the conditions shown in Table 1 below and acquiring data, the wavelength shift change (Response) was calculated using the analysis software included with the OctetR2. The measurements were carried out at a temperature of 30° C.

human IgA (human) [6] = assay: BLI (Octet R2) competition: human IgA on immobilised anti-human IgA antibody with 25 µg/mL of the peptide
human IgA (human) [7] = assay: BLI (Octet R2) competition: human IgA on immobilised anti-human IgA antibody with 50 µg/mL of the peptide
[8] = amount added 25 μg/mL, not added 5.7733
[9] = amount added 50 μg/mL, not added 5.7733
[10] = amount added 0.05 mg/mL, not added 32.01
[11] = amount added 0.1 mg/mL, not added 27.17

With “GGAGGUGCUCCGAAAGGAACUCC [PEG-modified IgG-binding nucleic acid aptamer]” the activity [1] was 4.96 nm.

In the case of “IgA-binding peptide: human IgA-binding peptide of approximately 1.8 kDa, amino acid sequence HMVCLSYRGRPVCFSL (SEQ ID NO: 2), reported for purification of human IgA [reference compound]”, the Response (human IgA; amount added 25 μg/mL) is reported as 2.1805 nm and the Response (human IgA; amount added 50 μg/mL) is reported as 2.2263 nm.

“IgG-binding nucleic acid aptamer: human IgG-binding nucleic acid aptamer of approximately 7.5 kDa, N(6)_ggAGGU(F)GcU(F)ccgaaaGGA(L)aC(F)U(F)cc (DNA GGAGGUGCUCCGAAAGGAACUCC; sugars from the 5' end ddrrrfrdfddddddrrldffdd, 5' {C6NH2}, backbone and methylation of C not given here; further chemistry not fully specified)” was tested, and the “Human IgG (Response)” value (human IgG [2]) was 7.6691 nm.

For “IgG-binding peptide: human IgG-binding peptide of approximately 1.5 kDa, amino acid sequence DCAWHLGELVWCT (SEQ ID NO: 1), known for purification of human IgG (human IgG binding peptide) [reference compound]”, the Response [3, 8] was 6.5522 nm, the Response [3, 9] was 6.6331 nm and the “Sample A measured value (TAT calibration curve)” value (from here on “Sample A measured value”) [4, 10] was 37.7 ng/mL. For the same molecule, the “Sample A measured value” value [4, 11] was 42.85 ng/mL, the Response (human IgG [5]; amount added 25 μg/mL) was 7.4221 nm and the Response (human IgG [5]; amount added 50 μg/mL) was 7.6293 nm.

In the case of “PEG-modified IgA-binding peptide: IgA-binding peptide (SEQ ID NO: 2) with one molecule of 20 kDa PEG attached via the N-terminal amino group”, the Response (human IgA; amount added 25 μg/mL) is reported as 1.6061 nm, the Response (human IgA; amount added 50 μg/mL) is reported as 1.5374 nm and the “reaction inhibitory effect compared with the unmodified peptide” value (human IgA; anti-human IgA antibody and human IgA) is reported as “stronger reaction inhibitory effect”.

For “PEG-modified IgG-binding peptide: IgG-binding peptide (SEQ ID NO: 1) with one molecule of 20 kDa PEG attached via the N-terminal amino group ({PEG 20 kDa}-DCAWHLGELVWCT; cysteine pairing not given here)”, the “effect in suppressing the non-specific reaction compared with the unmodified peptide” value [3] was “greater effect in suppressing the non-specific reaction than the unmodified peptide”, the “effect on inhibiting non-specific reactions compared with PEG-modified antibody fragment” value ([3]; added in equal amounts) was “greater effect on inhibiting non-specific reactions than the PEG-modified antibody fragment” and the Response ([3]; amount added 5 μg/mL, not added 6.0114) was 5.5469 nm. The Response ([3]; amount added 10 μg/mL, not added 6.0114) was 5.0054 nm, the Response ([3]; amount added 20 μg/mL, not added 6.0114) was 3.8339 nm and the Response [3, 8] was 3.0487 nm. The Response [3, 9] was 2.9829 nm, the Response ([3]; amount added 100 μg/mL, not added 5.7733) was 3.1926 nm and the Response ([3]; amount added 200 μg/mL, not added 6.0744) was 2.8092 nm. The Response ([3]; amount added 400 μg/mL, not added 6.0744) was 3.0917 nm, the “Sample A measured value” value [4, 10] was 10.84 ng/mL and the “Sample A measured value” value [4, 11] was 6.25 ng/mL. For the same molecule, the Response (human IgG [5]; amount added 25 μg/mL) was 3.1484 nm, the Response (human IgG [5]; amount added 50 μg/mL) was 2.6181 nm and the “reaction inhibitory effect compared with the unmodified peptide” value (human IgG [5]; anti-human IgG antibody and human IgG) was “stronger reaction inhibitory effect”.

Molecule HMVCLSYRGRPVCFSL [human IgA-binding peptide of approximately 1.8 kDa] has a Response [nm] (human IgA (human) [6]) of 2.18 nm and a Response [nm] (human IgA (human) [7]) of 2.23 nm.

B1: IgA-binding peptide modified with 20 kDa PEG (peptide)
peptide: HMVCLSYRGRPVCFSL
modifications: one molecule of 20 kDa PEG (succinimide-activated) attached via the amino group at the N-terminus
B1 was tested, and the Response [nm] (human IgA (human) [6]) was 1.61 nm and the Response [nm] (human IgA (human) [7]) was 1.54 nm.
